Entries after “also recorded” stand apart in the source; their conditions may differ. Where two headings read alike, the source gives them in different places.
Assays:
animals and humans = settings: cited from earlier work
[1] = test system: subjects diagnosed with ADHD; settings: study in the early 70's; cited from earlier work
adult albino rats = settings: 10 day administration, 500 ng/kg per day with the drinking water; cited from earlier work
[2] = cited from earlier work; for duration of action: in vivo
animals and man = settings: cited from earlier work; for analgesia: used separately
[3] = test system: spontaneously hypertensive rats (SHR); test: Blood pressure in spontaneously hypertensive rats (SHR); settings: rat, in vivo
Description: D-Phenylalanine was able to lower systolic blood pressure of these rats close to normal (average drop of 36.7 mm Hg). It is noteworthy that this effect is blocked by the narcotic antagonist and the effect on blood pressure is synergistic with the beta-blocker popranolol. Even more important is that the lowering of blood pressure by d-phenylalanine lasted several days.

humans [4] = test: Blood pressure in humans; type: in vivo, human; settings: single dose
pain patients = settings: cited from earlier work
mice [5] = settings: animal tests; cited from earlier work
mu-opioid receptor = mu-opioid receptor (Mus musculus, UniProt P42866); settings: spinal cord, wild-type mice; cited from earlier work
Chain of mu-opioid receptor (P42866 whole entry): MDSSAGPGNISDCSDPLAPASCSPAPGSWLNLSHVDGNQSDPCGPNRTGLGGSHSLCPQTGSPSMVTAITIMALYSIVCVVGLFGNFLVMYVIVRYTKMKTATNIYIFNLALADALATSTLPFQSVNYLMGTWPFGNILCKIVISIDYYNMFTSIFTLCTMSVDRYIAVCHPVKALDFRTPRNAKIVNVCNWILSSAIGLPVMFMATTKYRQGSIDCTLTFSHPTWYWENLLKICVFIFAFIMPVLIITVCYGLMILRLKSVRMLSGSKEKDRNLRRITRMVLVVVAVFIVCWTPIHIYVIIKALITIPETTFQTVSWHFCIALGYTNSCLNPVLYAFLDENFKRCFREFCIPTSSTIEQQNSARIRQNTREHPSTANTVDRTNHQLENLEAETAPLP

neurons = settings: cited from earlier work
animals [6] = settings: cited from earlier work
mice [7] = settings: cited from earlier work
mice [8] = settings: cited from earlier work; remark: listed apart in the source
MAO = settings: cited from earlier work
COMT = COMT (Homo sapiens, UniProt P21964); settings: cited from earlier work
Chain of COMT (P21964 whole entry, species assumed): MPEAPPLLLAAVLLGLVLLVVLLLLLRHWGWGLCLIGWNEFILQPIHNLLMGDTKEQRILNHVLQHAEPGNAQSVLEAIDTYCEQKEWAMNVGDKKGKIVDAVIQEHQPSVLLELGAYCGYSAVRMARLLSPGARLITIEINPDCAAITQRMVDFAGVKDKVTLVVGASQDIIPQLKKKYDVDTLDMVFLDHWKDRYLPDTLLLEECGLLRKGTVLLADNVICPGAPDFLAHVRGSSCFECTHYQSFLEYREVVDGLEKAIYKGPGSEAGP

[9] = test system: Blood Brain Barrier (BBB); settings: mice, vs saline controls, cited from earlier work
5-HTP decarboxylase = 5-HTP decarboxylase (Homo sapiens, UniProt P20711); settings: cited from earlier work
Chain of 5-HTP decarboxylase (P20711 whole entry): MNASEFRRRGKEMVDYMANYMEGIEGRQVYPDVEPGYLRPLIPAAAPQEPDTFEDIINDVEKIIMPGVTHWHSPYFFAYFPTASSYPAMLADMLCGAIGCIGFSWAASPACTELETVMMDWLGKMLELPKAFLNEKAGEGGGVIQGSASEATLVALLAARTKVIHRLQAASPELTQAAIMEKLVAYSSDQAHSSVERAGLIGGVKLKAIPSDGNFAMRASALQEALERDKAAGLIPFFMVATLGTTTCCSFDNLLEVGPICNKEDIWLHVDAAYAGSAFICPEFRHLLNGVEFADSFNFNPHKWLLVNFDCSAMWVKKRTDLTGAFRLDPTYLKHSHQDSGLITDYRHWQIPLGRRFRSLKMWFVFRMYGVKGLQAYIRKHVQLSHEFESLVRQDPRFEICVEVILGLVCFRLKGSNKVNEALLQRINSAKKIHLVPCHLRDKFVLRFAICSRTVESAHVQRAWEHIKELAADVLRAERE

brain of mice = settings: cited from earlier work
[10] = test system: allergy tested subjects with common cold; settings: lozenges
animals [11] = settings: cited from earlier work; for rewarding actions: dopamine receptor agonists
alcoholics = settings: in vivo; cited from earlier work
humans [12] = settings: in vivo; cited from earlier work
PMDD patients = settings: 1200 mg of calcium; cited from earlier work
common cold = settings: high dose supplementation; cited from earlier work
aminotripepidase = settings: cited from earlier work
rhinovirus = settings: reported 1974; cited from earlier work
[13] = test system: patients with age-related memory disorders; settings: certain patients; not substantiated by clinical trials; cited from earlier work
[14] = test system: synaptosomes in rat brain slices; settings: cited from earlier work
[15] = in vivo; cited from earlier work
swine = settings: in vivo; cited from earlier work
cell culture = settings: concentrations thousands of times higher than physiological levels; cited from earlier work
[16] = homozygous mu-opioid receptor knockout mice
[17] = wild type (and heterozygous) mice
[18] = mu-opioid receptor knockout mice

CC(C)CC(N)C(=O)O (racemic) [DL-leucine]
alcohol intake (animals and humans): significantly lowered

NC(Cc1ccccc1)C(=O)O (racemic) [DL-phenylalanine]
alcohol intake (animals and humans): significantly lowered
anxiety [1]: reduced anxiety
mood [1]: increased the mood

NC(=O)CC[C@H](N)C(=O)O [1-glutamine]
content of glutamate, GABA and taurine in the brain (adult albino rats): significant increase

Nc1c2c(nc3ccccc13)CCCC2 [Cognex]
duration of action [2]: 2 h

CC(C)C[C@@H](N)C(=O)O [D-leucine]
alcohol intake (animals and humans): significantly lowered
analgesia (animals and man; animals and man): excellent analgesia

N[C@H](Cc1ccccc1)C(=O)O [D-phenylalanine]
alcohol intake (animals and humans): significantly lowered
average drop of systolic blood pressure [3]: 36.7 mm Hg
duration of lowering of blood pressure [3]: several days
effect on blood pressure in presence of narcotic antagonist [3]: blocked
effect on blood pressure with the beta-blocker popranolol [3]: synergistic
heart rate [3]: no change
systolic and diastolic blood pressure [3]: significantly lowered
effect on blood pressure in normotensive individuals (humans [4]): no effect
duration of blood pressure lowering (humans [4]; humans): one or more days
pain associated with osteo- and rheumatoid arthritis (pain patients; cross-over studies in humans): reduced pain
analgesia in patients reactive to approved analgesic drugs including opiates (pain patients; double-blind studies): induced analgesia
analgesic effects of acupuncture (pain patients; in vivo): enhance
tolerance or addiction (animals and man; animals and man): without developing tolerance or addiction
duration of analgesia (animals and man; humans): very long-lasting
analgesia (animals and man; animals and man): excellent analgesia
anti-inflammatory character (mice [5]): exhibits anti-inflammatory character

C[C@@H](NC(=O)[C@@H](N)Cc1ccc(O)cc1)C(=O)NCC(=O)N(C)[C@@H](Cc1ccccc1)C(=O)NCCO [DAMGO]
[35S]GTPgammaS binding (mu-opioid receptor): concentration-dependent Increases

C/C=C1\[C@H]2C=C(C)C[C@]1(N)c1ccc(=O)[nH]c1C2 [Huperzine A]
glutamate-induced cellular death of neurons (neurons): blocked
difference between amounts effective for memory and learning and the non-toxic-effect dose (animals [6]; behavioral studies in animals): 30-100 fold
side effects (animals [6]; dose of 2 micrograms/kg): no remarkable side effects
time active ([2]; dose of 2 micrograms/kg): six hours
duration of action [2]: 3 h

CN1CC[C@]23c4c5ccc(O)c4O[C@H]2[C@@H](O)C=C[C@H]3[C@H]1C5 [Morphine]
withdrawal responses to mechanical stimuli (mice [7]; [16]): no significant effect
withdrawal responses to mechanical stimuli (mice [7]; [17]): dose-dependent reduction
writhing responses (mice [8]; [18]): ineffective
writhing responses (mice [8]; wild-type mice): effective

OC[C@H]1O[C@@H](OCCc2ccc(O)cc2)[C@H](O)[C@@H](O)[C@@H]1O [SAL, Salidosid]
MAO activity (MAO): inhibit; also recorded: decreases MAO activity
COMT activity (COMT): inhibit; also recorded: inhibits COMT activity
increase of the rise in serotonin ([9]; SAL 30 mg/Kg with 5-HTP 100 mg/kg): 13%
increase of the rise in exogenous DOPA ([9]; SAL 30 mg/Kg with L-Dopa 50 mg/kg): 26%
activity of 5-HTP decarboxylase (5-HTP decarboxylase): does not alter
disulfuram-induced decrease of NE in the brain (brain of mice; 30 mg/kg, animals): prevented
decrease of content of 5-HT (brain of mice; 30 mg/kg): 15%
decrease of content of NE (brain of mice; 30 mg/kg): 26%
decrease of concentration of Dopamine (brain of mice; 100 mg/kg): 28%
decrease of concentration of NE (brain of mice; 100 mg/kg): 20%
decrease of concentration of serotonin (brain of mice; 100 mg/kg): 23%
levels of epinephrine and DOPA (brain of mice; mouse, in vivo): did not alter

C=CCN1C[C@H](C)N([C@H](c2ccc(C(=O)N(CC)CC)cc2)c2cccc(OC)c2)C[C@H]1C [SNC8O]
writhing responses (mice [8]; [18]): ineffective
writhing responses (mice [8]; wild-type mice): effective

CC(=O)[O-].CC(=O)[O-].[Zn+2] [Zinc acetate]
duration of common cold symptoms [10]: significantly shortened
symptoms associated with allergies [10]: re3lieved

CN1CCc2cccc3c2[C@H]1Cc1ccc(O)c(O)c1-3 [apomorphine]
rewarding actions (animals [11]): have rewarding actions

CC(C)C[C@H]1C(=O)N2CCC[C@H]2[C@]2(O)O[C@](NC(=O)[C@@H]3C=C4c5cccc6[nH]c(Br)c(c56)C[C@H]4N(C)C3)(C(C)C)C(=O)N12 [bromocriptine]
reducing relapse rates as a function of dopamine D2 receptor genotype (alcoholics): selective positive effect
rewarding actions (animals [11]): have rewarding actions
short term memory (humans [12]): increase short term memory

[Ca+2] [calcium]
rate of reported symptoms relative to placebo (PMDD patients): fifty percent

O=C(CCCN1CCC(O)(c2ccc(Cl)cc2)CC1)c1ccc(F)cc1 [haloperidol]
alcohol and cocaine self-administration (animals [11]; animals): atenuate or block

O=C(O)CCc1ccccc1 [hydrocinnamic acid]
alcohol intake (animals and humans): significantly lowered

O=C1O[C@H]([C@@H](O)CO)C(O)=C1O [vitamin C]
decrease of incidence of the common cold (common cold): no evidence

[Zn+2] [zinc ions]
inhibition of aminotripepidase (aminotripepidase): potent inhibitor
rhinovirus replication (rhinovirus): inhibit

DPDPE
withdrawal responses to mechanical stimuli (mice [7]; [16]): not
withdrawal responses to mechanical stimuli (mice [7]; [17]): reduced

Huperzine
learning and memory [13]: improves learning and memory

Tyr-Arg [Kyotorphin]
intracellular calcium [14]: enhance intracellular calcium
analgesic activity [15]: analgesic

Tyr-D-arg
intracellular calcium [14]: enhance intracellular calcium
analgesic activity [15]: analgesic

methionine-enkephalin
blood flow in specific brain sites (basal ganglia, frontal cortex, hippocampus) (swine): enhancement of blood flow

trivalent chromium
chromosome breakage (cell culture): can break chromosomes

From patent US6955873B1, “Diagnosis and treatment system for reward deficiency syndrome (RDS) and related behaviors” (priority 1999, dated 2005)
